Data from ChEMBL document CHEMBL3526030, “Transport of the coumarin metabolite 7-hydroxycoumarin glucuronide is mediated via multidrug resistance-associated proteins 3 and 4” (Drug Metab Dispos, 2012).

What was measured:
[1] = biological target: T1, ATP-binding cassette sub-family C member 4 (Homo sapiens, UniProt O15439); assay: Activity at MRP4 (unknown origin) expressed in baculovirus-infected HEK293 cells assessed as drug transport at 400 uM after 10 mins by reversed-phase HPLC analysis in presence of AMP; format: ADME; details: hek293, 10 min, BLD = below limit of detection
T1 sequence (O15439 whole entry): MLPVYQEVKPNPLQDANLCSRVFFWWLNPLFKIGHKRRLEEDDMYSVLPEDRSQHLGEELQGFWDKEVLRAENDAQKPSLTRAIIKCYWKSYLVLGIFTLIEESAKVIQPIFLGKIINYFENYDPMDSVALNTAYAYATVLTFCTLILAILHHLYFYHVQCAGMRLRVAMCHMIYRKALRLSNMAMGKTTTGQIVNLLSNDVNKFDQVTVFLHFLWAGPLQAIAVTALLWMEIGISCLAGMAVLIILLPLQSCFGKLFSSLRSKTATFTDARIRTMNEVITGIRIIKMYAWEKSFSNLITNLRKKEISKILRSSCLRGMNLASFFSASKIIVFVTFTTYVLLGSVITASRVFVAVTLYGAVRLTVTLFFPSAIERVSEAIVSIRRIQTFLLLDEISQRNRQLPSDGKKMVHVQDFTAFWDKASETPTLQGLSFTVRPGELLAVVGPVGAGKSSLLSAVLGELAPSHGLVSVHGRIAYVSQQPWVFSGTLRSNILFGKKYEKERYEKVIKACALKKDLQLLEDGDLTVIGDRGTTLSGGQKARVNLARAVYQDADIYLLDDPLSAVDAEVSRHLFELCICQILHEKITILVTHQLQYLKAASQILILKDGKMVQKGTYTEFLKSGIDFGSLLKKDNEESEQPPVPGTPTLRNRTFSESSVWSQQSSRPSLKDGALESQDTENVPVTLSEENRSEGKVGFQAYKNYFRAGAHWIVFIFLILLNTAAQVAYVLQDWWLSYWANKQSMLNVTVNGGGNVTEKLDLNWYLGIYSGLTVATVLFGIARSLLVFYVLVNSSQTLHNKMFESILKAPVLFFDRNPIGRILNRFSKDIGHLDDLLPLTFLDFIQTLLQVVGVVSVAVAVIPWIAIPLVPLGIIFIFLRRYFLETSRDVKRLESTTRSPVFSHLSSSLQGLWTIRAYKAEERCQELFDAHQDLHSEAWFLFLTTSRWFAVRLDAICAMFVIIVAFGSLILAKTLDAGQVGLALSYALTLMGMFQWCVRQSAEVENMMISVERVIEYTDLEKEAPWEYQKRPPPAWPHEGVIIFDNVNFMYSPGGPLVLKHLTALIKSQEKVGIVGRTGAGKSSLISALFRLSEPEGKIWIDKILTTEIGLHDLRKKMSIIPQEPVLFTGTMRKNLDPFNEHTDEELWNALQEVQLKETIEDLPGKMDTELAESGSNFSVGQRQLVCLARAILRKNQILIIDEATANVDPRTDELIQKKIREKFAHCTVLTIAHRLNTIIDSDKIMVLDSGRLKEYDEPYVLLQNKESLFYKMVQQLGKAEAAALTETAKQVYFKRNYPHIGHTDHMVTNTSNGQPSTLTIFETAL

[2] = biological target: T2, Multidrug resistance-associated protein 1 (Homo sapiens, UniProt P33527); assay: Activity at MRP1 (unknown origin) expressed in baculovirus-infected HEK293 cells assessed as drug transport at 400 uM after 10 mins by reversed-phase HPLC analysis in presence of AMP; format: ADME; details: hek293, 10 min, BLD = below limit of detection
T2 sequence (P33527 whole entry): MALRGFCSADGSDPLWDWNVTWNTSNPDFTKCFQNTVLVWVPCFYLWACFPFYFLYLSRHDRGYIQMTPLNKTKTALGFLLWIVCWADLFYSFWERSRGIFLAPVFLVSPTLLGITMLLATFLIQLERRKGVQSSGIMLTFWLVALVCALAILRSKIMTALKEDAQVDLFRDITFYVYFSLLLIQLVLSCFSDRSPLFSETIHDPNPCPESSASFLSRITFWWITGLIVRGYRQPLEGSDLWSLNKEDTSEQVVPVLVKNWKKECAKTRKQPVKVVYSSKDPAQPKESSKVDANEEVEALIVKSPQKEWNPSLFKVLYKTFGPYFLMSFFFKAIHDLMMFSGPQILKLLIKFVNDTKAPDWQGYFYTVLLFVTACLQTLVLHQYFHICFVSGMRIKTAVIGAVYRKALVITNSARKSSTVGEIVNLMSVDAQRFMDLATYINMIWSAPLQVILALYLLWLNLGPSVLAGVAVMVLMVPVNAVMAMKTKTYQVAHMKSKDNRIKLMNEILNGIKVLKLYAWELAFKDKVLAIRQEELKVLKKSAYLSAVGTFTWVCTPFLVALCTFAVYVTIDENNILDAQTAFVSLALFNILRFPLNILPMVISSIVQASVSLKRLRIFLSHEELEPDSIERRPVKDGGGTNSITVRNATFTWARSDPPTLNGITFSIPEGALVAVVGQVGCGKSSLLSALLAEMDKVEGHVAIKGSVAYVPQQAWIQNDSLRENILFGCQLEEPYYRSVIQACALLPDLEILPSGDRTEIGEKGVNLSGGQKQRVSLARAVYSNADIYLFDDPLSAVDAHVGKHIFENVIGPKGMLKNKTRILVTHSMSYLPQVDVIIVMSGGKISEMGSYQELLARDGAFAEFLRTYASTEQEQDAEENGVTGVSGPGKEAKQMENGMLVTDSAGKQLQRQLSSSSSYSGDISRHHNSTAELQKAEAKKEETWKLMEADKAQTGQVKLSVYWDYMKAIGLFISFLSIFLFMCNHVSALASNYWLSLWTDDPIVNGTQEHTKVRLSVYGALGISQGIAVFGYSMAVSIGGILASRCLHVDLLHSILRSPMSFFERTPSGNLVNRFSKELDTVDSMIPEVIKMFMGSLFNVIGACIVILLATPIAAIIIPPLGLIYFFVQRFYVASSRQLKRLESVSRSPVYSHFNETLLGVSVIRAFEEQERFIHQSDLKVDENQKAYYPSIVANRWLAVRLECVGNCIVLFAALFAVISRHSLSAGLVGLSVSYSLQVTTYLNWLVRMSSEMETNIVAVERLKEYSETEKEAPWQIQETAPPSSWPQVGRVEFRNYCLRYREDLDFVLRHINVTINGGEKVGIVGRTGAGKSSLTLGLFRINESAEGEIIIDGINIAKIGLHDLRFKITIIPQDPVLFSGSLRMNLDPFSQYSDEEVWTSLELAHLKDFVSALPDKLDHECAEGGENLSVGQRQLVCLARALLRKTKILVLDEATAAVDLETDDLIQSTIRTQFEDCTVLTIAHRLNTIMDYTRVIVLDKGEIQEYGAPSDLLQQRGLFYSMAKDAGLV

[3] = Activity at P-gp (unknown origin) expressed in baculovirus-infected HEK293 cells assessed as drug transport at 400 uM after 10 mins by reversed-phase HPLC analysis in presence of AMP; format: ADME; details: human, hek293, 10 min, BLD = below limit of detection
[4] = Activity at P-gp (unknown origin) expressed in baculovirus-infected HEK293 cells assessed as drug transport at 400 uM after 10 mins by reversed-phase HPLC analysis in presence of ATP; format: ADME; details: human, hek293, 10 min
[5] = biological target: T3, ATP-binding cassette sub-family C member 2 (Homo sapiens, UniProt Q92887); assay: Activity at MRP2 (unknown origin) expressed in baculovirus-infected HEK293 cells assessed as drug transport at 400 uM after 10 mins by reversed-phase HPLC analysis in presence of AMP; format: ADME; details: hek293, 10 min, BLD = below limit of detection
T3 sequence (Q92887 whole entry): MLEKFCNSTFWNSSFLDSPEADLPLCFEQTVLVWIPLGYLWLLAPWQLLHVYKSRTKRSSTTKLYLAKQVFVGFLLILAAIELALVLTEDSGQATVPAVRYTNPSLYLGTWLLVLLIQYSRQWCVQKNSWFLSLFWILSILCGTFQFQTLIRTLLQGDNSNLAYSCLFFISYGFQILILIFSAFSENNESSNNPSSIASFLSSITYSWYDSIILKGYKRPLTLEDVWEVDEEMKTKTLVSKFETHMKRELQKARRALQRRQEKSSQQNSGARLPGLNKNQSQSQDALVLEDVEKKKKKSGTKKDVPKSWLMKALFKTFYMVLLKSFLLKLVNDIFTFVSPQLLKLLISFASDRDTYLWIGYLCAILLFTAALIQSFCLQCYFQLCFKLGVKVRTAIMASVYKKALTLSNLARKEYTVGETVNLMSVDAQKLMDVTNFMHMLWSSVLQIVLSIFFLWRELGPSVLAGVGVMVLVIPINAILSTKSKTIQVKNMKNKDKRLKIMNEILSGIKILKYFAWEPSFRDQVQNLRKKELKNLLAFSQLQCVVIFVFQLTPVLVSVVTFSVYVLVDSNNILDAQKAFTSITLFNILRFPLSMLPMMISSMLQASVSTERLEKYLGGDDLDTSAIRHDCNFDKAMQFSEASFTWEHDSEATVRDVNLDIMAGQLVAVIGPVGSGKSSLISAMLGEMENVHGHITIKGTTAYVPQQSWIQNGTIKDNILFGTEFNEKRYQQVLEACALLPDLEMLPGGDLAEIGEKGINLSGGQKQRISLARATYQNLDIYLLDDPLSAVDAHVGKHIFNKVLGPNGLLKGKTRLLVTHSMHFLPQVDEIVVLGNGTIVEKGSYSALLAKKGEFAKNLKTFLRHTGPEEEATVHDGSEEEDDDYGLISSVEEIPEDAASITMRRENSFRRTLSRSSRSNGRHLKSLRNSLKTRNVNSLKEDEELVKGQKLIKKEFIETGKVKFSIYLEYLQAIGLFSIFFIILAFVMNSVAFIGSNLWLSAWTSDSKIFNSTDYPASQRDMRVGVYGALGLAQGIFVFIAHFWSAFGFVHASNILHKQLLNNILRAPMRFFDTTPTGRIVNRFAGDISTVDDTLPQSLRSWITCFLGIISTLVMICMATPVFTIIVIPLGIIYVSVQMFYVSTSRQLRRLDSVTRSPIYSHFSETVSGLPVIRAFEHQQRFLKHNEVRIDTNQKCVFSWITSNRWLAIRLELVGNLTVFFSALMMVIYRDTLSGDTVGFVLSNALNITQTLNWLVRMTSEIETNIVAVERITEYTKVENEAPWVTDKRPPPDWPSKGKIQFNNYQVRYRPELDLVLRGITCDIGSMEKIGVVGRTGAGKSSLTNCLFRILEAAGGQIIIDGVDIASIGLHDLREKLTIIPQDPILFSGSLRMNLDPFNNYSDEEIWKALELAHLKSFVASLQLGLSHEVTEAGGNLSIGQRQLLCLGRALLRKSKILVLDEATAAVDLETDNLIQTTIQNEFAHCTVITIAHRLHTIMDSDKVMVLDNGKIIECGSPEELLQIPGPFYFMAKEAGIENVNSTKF

[6] = biological target: T4, Broad substrate specificity ATP-binding cassette transporter ABCG2 (Homo sapiens, UniProt Q9UNQ0); assay: Activity at BCRP (unknown origin) expressed in baculovirus-infected HEK293 cells assessed as drug transport at 400 uM after 10 mins by reversed-phase HPLC analysis in presence of AMP; format: ADME; details: hek293, 10 min, BLD = below limit of detection
T4 sequence (Q9UNQ0 whole entry): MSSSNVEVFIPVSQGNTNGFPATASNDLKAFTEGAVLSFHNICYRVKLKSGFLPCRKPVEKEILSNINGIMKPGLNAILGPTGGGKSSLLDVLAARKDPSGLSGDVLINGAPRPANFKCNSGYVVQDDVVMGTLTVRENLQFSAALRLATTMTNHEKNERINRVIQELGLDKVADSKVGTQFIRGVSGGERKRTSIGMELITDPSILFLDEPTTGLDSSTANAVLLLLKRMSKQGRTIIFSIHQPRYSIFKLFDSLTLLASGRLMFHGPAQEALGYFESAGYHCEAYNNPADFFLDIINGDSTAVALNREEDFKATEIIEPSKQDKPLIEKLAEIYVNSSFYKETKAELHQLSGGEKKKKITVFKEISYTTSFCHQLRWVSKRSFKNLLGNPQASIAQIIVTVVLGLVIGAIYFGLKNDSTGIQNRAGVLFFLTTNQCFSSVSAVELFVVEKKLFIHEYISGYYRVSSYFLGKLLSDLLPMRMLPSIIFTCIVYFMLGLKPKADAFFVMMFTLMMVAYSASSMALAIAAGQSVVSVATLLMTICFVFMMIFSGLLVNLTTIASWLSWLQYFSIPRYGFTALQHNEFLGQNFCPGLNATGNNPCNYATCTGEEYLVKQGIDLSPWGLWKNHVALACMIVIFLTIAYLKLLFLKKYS

[7] = biological target: T5, ATP-binding cassette sub-family C member 3 (Homo sapiens, UniProt O15438); assay: Activity at MRP3 (unknown origin) expressed in baculovirus-infected HEK293 cells assessed as drug transport at 400 uM after 10 mins by reversed-phase HPLC analysis in presence of AMP; format: ADME; details: hek293, 10 min, BLD = below limit of detection
[8] = biological target: T1, ATP-binding cassette sub-family C member 4; assay: Activity at MRP4 (unknown origin) expressed in baculovirus-infected HEK293 cells assessed as drug transport at 400 uM after 10 mins by reversed-phase HPLC analysis in presence of ATP; format: ADME; details: hek293, 10 min, BLD = below limit of detection
[9] = biological target: T4, Broad substrate specificity ATP-binding cassette transporter ABCG2; assay: Activity at BCRP (unknown origin) expressed in baculovirus-infected HEK293 cells assessed as drug transport at 400 uM after 10 mins by reversed-phase HPLC analysis in presence of ATP; format: ADME; details: hek293, 10 min, BLD = below limit of detection
[10] = biological target: T3, ATP-binding cassette sub-family C member 2; assay: Activity at MRP2 (unknown origin) expressed in baculovirus-infected HEK293 cells assessed as drug transport at 400 uM after 10 mins by reversed-phase HPLC analysis in presence of ATP; format: ADME; details: hek293, 10 min, BLD = below limit of detection
[11] = biological target: T5, ATP-binding cassette sub-family C member 3; assay: Activity at MRP3 (unknown origin) expressed in baculovirus-infected HEK293 cells assessed as drug transport at 400 uM after 10 mins by reversed-phase HPLC analysis in presence of ATP; format: ADME; details: hek293, 10 min, BLD = below limit of detection
[12] = biological target: T2, Multidrug resistance-associated protein 1; assay: Activity at MRP1 (unknown origin) expressed in baculovirus-infected HEK293 cells assessed as drug transport at 400 uM after 10 mins by reversed-phase HPLC analysis in presence of ATP; format: ADME; details: hek293, 10 min, BLD = below limit of detection
[13] = substrate: O=C(O)[C@H]1O[C@@H](Oc2ccc3ccc(=O)oc3c2)[C@H](O)[C@@H](O)[C@@H]1O; assay: Activity at MRP3 (unknown origin) expressed in baculovirus-infected HEK293 cells assessed as drug transport after 10 mins by Michaelis-Menten plot analysis; format: ADME, Homo sapiens
[14] = substrate: O=C(O)[C@H]1O[C@@H](Oc2ccc3ccc(=O)oc3c2)[C@H](O)[C@@H](O)[C@@H]1O; assay: Activity at MRP4 (unknown origin) expressed in baculovirus-infected HEK293 cells assessed as drug transport after 10 mins by Michaelis-Menten plot analysis; format: ADME, Homo sapiens

O=C(O)[C@H]1O[C@@H](Oc2ccc3ccc(=O)oc3c2)[C@H](O)[C@@H](O)[C@@H]1O
Drug transport [1]: BLD
Drug transport [2]: BLD
Drug transport [3]: BLD
Drug transport [4]: Not Active
Drug transport [5]: BLD
Drug transport [6]: BLD
Drug transport [7]: BLD

O=c1ccc2ccc(O)cc2o1 [UMBELLIFERONE]
Drug transport [8]: BLD
Drug transport [9]: BLD
Drug transport [10]: BLD
Drug transport ([4]; BLD = below limit of detection): BLD
Drug transport [11]: BLD
Drug transport [12]: BLD

B1: ATP-binding cassette sub-family C member 3 (Homo sapiens) (protein)
chain: MDALCGSGELGSKFWDSNLSVHTENPDLTPCFQNSLLAWVPCIYLWVALPCYLLYLRHHCRGYIILSHLSKLKMVLGVLLWCVSWADLFYSFHGLVHGRAPAPVFFVTPLVVGVTMLLATLLIQYERLQGVQSSGVLIIFWFLCVVCAIVPFRSKILLAKAEGEISDPFRFTTFYIHFALVLSALILACFREKPPFFSAKNVDPNPYPETSAGFLSRLFFWWFTKMAIYGYRHPLEEKDLWSLKEEDRSQMVVQQLLEAWRKQEKQTARHKASAAPGKNASGEDEVLLGARPRPRKPSFLKALLATFGSSFLISACFKLIQDLLSFINPQLLSILIRFISNPMAPSWWGFLVAGLMFLCSMMQSLILQHYYHYIFVTGVKFRTGIMGVIYRKALVITNSVKRASTVGEIVNLMSVDAQRFMDLAPFLNLLWSAPLQIILAIYFLWQNLGPSVLAGVAFMVLLIPLNGAVAVKMRAFQVKQMKLKDSRIKLMSEILNGIKVLKLYAWEPSFLKQVEGIRQGELQLLRTAAYLHTTTTFTWMCSPFLVTLITLWVYVYVDPNNVLDAEKAFVSVSLFNILRLPLNMLPQLISNLTQASVSLKRIQQFLSQEELDPQSVERKTISPGYAITIHSGTFTWAQDLPPTLHSLDIQVPKGALVAVVGPVGCGKSSLVSALLGEMEKLEGKVHMKGSVAYVPQQAWIQNCTLQENVLFGKALNPKRYQQTLEACALLADLEMLPGGDQTEIGEKGINLSGGQRQRVSLARAVYSDADIFLLDDPLSAVDSHVAKHIFDHVIGPEGVLAGKTRVLVTHGISFLPQTDFIIVLADGQVSEMGPYPALLQRNGSFANFLCNYAPDEDQGHLEDSWTALEGAEDKEALLIEDTLSNHTDLTDNDPVTYVVQKQFMRQLSALSSDGEGQGRPVPRRHLGPSEKVQVTEAKADGALTQEEKAAIGTVELSVFWDYAKAVGLCTTLAICLLYVGQSAAAIGANVWLSAWTNDAMADSRQNNTSLRLGVYAALGILQGFLVMLAAMAMAAGGIQAARVLHQALLHNKIRSPQSFFDTTPSGRILNCFSKDIYVVDEVLAPVILMLLNSFFNAISTLVVIMASTPLFTVVILPLAVLYTLVQRFYAATSRQLKRLESVSRSPIYSHFSETVTGASVIRAYNRSRDFEIISDTKVDANQRSCYPYIISNRWLSIGVEFVGNCVVLFAALFAVIGRSSLNPGLVGLSVSYSLQVTFALNWMIRMMSDLESNIVAVERVKEYSKTETEAPWVVEGSRPPEGWPPRGEVEFRNYSVRYRPGLDLVLRDLSLHVHGGEKVGIVGRTGAGKSSMTLCLFRILEAAKGEIRIDGLNVADIGLHDLRSQLTIIPQDPILFSGTLRMNLDPFGSYSEEDIWWALELSHLHTFVSSQPAGLDFQCSEGGENLSVGQRQLVCLARALLRKSRILVLDEATAAIDLETDNLIQATIRTQFDTCTVLTIAHRLNTIMDYTRVLVLDKGVVAEFDSPANLIAARGIFYGMARDAGLA
Km [13]: 187 µM
Vmax [13]: 0.00046 µmol/min/mg

B2: ATP-binding cassette sub-family C member 4 (Homo sapiens) (protein)
chain: T1 sequence (O15439 whole entry)
Km [14]: 63 µM
Vmax [14]: 0.00092 µmol/min/mg
